Experimental data as given in US5451688A, “Hexahydronaphthalene ester derivatives, their preparation and their therapeutic uses” (Sankyo Company, Limited, priority 1992, dated 1995).
Where two headings read alike, the source gives them in different places.

How the values were obtained:
[1] = target: T1, HMG-CoA reductase (Rattus norvegicus, UniProt P51639); experiment: HMG-CoA reductase inhibitory activity; type: biochemical; settings: rat liver microsomal fraction, 0.2 mM [14C]HMG-CoA, pH 7.4, 15 minutes at 37° C.
T1 sequence (P51639 1-887): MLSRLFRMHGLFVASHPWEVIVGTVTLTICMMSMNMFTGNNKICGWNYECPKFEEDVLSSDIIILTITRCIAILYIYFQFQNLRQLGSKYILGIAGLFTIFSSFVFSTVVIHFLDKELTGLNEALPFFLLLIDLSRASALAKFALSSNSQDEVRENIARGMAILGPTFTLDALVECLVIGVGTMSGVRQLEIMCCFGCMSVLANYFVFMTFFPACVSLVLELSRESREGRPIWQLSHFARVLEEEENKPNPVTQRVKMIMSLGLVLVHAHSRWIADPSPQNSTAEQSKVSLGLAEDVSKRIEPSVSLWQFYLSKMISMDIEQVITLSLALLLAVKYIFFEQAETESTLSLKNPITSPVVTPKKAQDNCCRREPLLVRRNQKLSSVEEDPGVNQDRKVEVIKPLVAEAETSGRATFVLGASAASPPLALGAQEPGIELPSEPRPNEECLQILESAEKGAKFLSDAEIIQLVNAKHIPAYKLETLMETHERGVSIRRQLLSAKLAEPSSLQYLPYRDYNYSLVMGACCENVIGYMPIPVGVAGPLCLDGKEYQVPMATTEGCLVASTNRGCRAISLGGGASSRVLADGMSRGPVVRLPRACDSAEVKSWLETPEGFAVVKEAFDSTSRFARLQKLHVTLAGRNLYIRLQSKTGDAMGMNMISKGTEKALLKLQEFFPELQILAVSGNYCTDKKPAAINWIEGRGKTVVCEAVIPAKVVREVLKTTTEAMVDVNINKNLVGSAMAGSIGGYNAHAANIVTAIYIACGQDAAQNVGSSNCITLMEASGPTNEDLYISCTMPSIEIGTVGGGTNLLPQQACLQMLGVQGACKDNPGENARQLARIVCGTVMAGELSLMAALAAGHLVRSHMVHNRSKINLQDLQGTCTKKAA

[2] = tested on: sterol synthesis in the liver; experiment: inhibitory activity against sterol synthesis in mouse liver; type: in vivo; settings: read-out: Sterol-synthesis inhibitory activity ED50
Protocol: Detemination of inhibitory activity against sterol synsthesis in mouse liver
Sterol synthesis in the liver in mice was measured by the method of Koga et al. [Biochem. Biophys.
15 μl of [^14 C]acetate was intraperitoneally injected into each mouse. One hour later, the animal was sacrificed by decapitation and the liver was excised. Sterol synthesis in the liver was measured by the incorporation of [^14 C]activity into the digitoninprecipitable sterols.
The sterol synthesis activity in a control animal receiving only a 1% Tween 80 solution was defined as 100%.

[3] = mice, oral, 2 hours before [14C]acetate, dose required to inhibit sterol synthesis in the liver by 50%

SMILES	IC50 [1]	ED50 ([2]; po)	ED50 [2, 3]
CCCC(CCC)C(=O)O[C@H]1C[C@H](O)C=C2C=C[C@H](C)[C@H](CC[C@@H](O)C[C@@H](O)CC(=O)[O-])[C@H]21.[Na+]	35.5 nM	0.15 mg/kg	
CCC(C)(CC)C(=O)O[C@H]1C[C@H](O)C=C2C=C[C@H](C)[C@H](CC[C@@H](O)C[C@@H](O)CC(=O)O)[C@H]21 [Example 51, Sodium (3R,5R)-3,5-dihydro-7-[(1S,2S,6S,8S,8aR)-6-hydroxy-2-methyl-8-(2-ethyl-2-methylbutyryloxy)-1,2,6,7,8,8a-hexahydro-1-naphthyl]heptanoate]	33.8 nM		0.063 mg/kg
C=CCC(CC)(CC)C(=O)O[C@H]1C[C@H](O)C=C2C=C[C@H](C)[C@H](CC[C@@H](O)C[C@@H](O)CC(=O)O)[C@H]21 [Example 64, Sodium (3R,5R),3,5-dihydroxy-7-[(1S,2S,6S,8S,8aR)-6-hydroxy-2-methyl-8-(2,2-diethyl-4-pentenoyloxy)-1,2,6,7,8,8a-hexahydro-1-naphthyl]heptanoate]	34.4 nM		0.13 mg/kg
C=CCC(CC)(CC=C)C(=O)O[C@H]1C[C@H](O)C=C2C=C[C@H](C)[C@H](CC[C@@H](O)C[C@@H](O)CC(=O)O)[C@H]21 [Example 65, Sodium (3R,5R)-3,5-dihydroxy-7-[(1S,2S,6S,8S,8aR)-6-hydroxy-2-methyl-8-(2-allyl-2-ethyl-4-pentenoyloxy)-1.2.6,7,8,8a-hexahydro-1-naphthyl]heptanoate]	36.6 nM		0.19 mg/kg
CCC(C)(C)C(=O)OC1CC(O)C=C2C=CC(C)C(CCC3CC(O)CC(=O)O3)C21 (stereo not shown) [Prior art cpd., reference compound]	44.9 nM		0.58 mg/kg

Continued by falling IC50 [1], values first:

IC50 [1]	SMILES	ED50 ([2]; po)	ED50 [2, 3]
32.9 nM	CCCCC(C)(C)C(=O)O[C@H]1C[C@H](O)C=C2C=C[C@H](C)[C@H](CC[C@@H](O)C[C@@H](O)CC(=O)O)[C@H]21 [Example 69, Sodium (3R,5R)-3,5-dihydroxy-7-[(1S,2S,6S,8S,8aR)-6-hydroxy-2-methyl-8-[2,2-dimethylhexanoyloxy)-1,2.6.7,8,8a-hexahydro-1-naphthyl]heptanoate]		0.028 mg/kg
32.3 nM	CCC(CC)(CC)C(=O)O[C@H]1C[C@H](O)C=C2C=C[C@H](C)[C@H](CC[C@@H](O)C[C@@H](O)CC(=O)O)[C@H]21 [Example 52, Sodium (3R,5R)-3,5-dihydroxy-7-[(1S,2S,6S,8S,8aR)-6-hydroxy-2-methyl-8-(2.2-diethylbutyryloxy)-1,2,6,7,8,8a-hexahydro-1-naphthyl]heptanoate]		0.054 mg/kg
32.1 nM	CCC[C@](C)(CC)C(=O)O[C@H]1C[C@H](O)C=C2C=C[C@H](C)[C@H](CC[C@@H](O)C[C@@H](O)CC(=O)O)[C@H]21 [Example 67, Sodium (3R,5R)-3,5-dihydroxy-7-[(2S,2S,6S,8S,8aR)-6-hydroxy-2-methyl-8-(2-ethyl-2-methylvaleryloxy)-1,2,6,7,8,8a-hexahydro-1-naphthyl]heptanoate]		0.048 mg/kg
